# According to patent US8575338B2, “Pyrimidine, pyridine and triazine derivatives as maxi-K channel openers” (Mitsubishi Tanabe Pharma Corporation, priority 2008, dated 2013):
# Target: T1, human BKαβ1 channels (Homo sapiens, UniProt Q12791)
# T1 construct: expressed in transfected cells; host or cells: CHO cells (G418 and hygromycin selection)
# Test: BK current in CHO cells expressing human BKαβ1 (PatchXpress whole-cell patch clamp), EC100
# Assay type: cell-based
# Details: drug concentration causing 100% increase of BK current
# Procedure: Methods for Testing Compounds on Human BKαβ1 Channels Expressed Cho Cells
# CHO cells expressing human BKαβ1 were cultured in T75 or 6 well cell culture cluster. Medium: DMEM/F12+10% FBS+0.5 mg/mL G418/genetecin+0.1 mg/mL Hygromycin. Split cells every 3-4 days at 80-90% confluence. Use cells for experiments 60-72 hrs after re-passage and at ˜90% confluence.
# Trypsin solution (0.05% Trypsin+0.1% EDTA), Ca^2+ free PBS and culture medium were warmed to 37° C. Inspect the T75 flask for cell confluence. Remove culture medium and add warm Ca^2+ free PBS to wash cells. Remove Ca^2+ free PBS and add warm Trypsin solution. Put the T75 flask back to 37° C. incubator for about 4.5 minutes. Stop Trypsin activity by adding culture medium. Spin the cells down. Suspend cells in 120-160 μL external solution for BK current recording and use the cells as soon as possible.
# PatchXpress Sealchip 16 electrodes (AVIVA Biosciences) and PatchXpress 7000A (Axon Instruments, Inc) were used for BK current recording. Flat bottom 1.5 mL glass vial (HiPep Laboratories) were used for containing external solutions (±compounds). The holes in the sealchip (equivalent to patch electrode) had resistance about 1.5 MΩ. Cell membrane capacitance was compensated and access resistance was also compensated by 40%. Voltage-clamp protocol: Holding voltage=0 mV. Record BK current during 200-ms steps between +80 to +120 mV in 10 mV increments and 2 sec inter-pulse interval. On-line digital leak subtraction was performed by a P/−4 procedure. After whole-cell configuration was established, 2 minute was used to optimize access resistance. Then the chamber was washed with control bath solution for 1 minute to remove excessive cells. Control bath solution was added with robotic pipette and control BK current was recorded after 1 minute equilibrium time. For each drug concentration, 45 μL drug solution was added three times with “suction before adding” mode which left old solution. For each drug addition, 1 minute equilibrium time was given. BK current was measured at each drug concentrations (usually within 3.5 minutes after first drug addition). Calculate % change of BK current at the voltage step when the control BK current first exceeding 200 pA. If the control BK current was less than 200 pA at 120 mV, the cell was not used. % changes were calculated as 100*(Id−Ic)/Ic, where Id was the current amplitude in the presence of drug and Ic was the control current amplitude.
# EC100 was defined as the drug concentration causing 100% increase of BK current calculated by the method described above. EC100 was determined by the data points just below and above 100%. % Increase of BK current was plotted against log [drug concentration]. A straight line connected two data points flanking 100%. From this straight line, the concentration corresponding to 100% increase of BK current was determined as EC100.
# Compounds were dissolved in DMSO to make 10 mM stock solutions. Subsequent dilutions were made with external solution. The testing drug concentrations were 0.1, 0.3, 1, 3 and 10 μM depending on the potency of compounds. The highest DMSO concentration was 0.1%. External solution (in mM): 140 NaCl, 4 KCl, 1 MgCl2, 2 CaCl2, 10 Glucose, 10 HEPES; pH=7.4 with NaOH. Internal solution (in mM): 140 KCl, 5 EGTA, 1 MgCl2, 5 MgATP, 0.2 CaCl2, 5 HEPES; pH=7.2 with KOH.
# T1 sequence (Q12791 whole entry): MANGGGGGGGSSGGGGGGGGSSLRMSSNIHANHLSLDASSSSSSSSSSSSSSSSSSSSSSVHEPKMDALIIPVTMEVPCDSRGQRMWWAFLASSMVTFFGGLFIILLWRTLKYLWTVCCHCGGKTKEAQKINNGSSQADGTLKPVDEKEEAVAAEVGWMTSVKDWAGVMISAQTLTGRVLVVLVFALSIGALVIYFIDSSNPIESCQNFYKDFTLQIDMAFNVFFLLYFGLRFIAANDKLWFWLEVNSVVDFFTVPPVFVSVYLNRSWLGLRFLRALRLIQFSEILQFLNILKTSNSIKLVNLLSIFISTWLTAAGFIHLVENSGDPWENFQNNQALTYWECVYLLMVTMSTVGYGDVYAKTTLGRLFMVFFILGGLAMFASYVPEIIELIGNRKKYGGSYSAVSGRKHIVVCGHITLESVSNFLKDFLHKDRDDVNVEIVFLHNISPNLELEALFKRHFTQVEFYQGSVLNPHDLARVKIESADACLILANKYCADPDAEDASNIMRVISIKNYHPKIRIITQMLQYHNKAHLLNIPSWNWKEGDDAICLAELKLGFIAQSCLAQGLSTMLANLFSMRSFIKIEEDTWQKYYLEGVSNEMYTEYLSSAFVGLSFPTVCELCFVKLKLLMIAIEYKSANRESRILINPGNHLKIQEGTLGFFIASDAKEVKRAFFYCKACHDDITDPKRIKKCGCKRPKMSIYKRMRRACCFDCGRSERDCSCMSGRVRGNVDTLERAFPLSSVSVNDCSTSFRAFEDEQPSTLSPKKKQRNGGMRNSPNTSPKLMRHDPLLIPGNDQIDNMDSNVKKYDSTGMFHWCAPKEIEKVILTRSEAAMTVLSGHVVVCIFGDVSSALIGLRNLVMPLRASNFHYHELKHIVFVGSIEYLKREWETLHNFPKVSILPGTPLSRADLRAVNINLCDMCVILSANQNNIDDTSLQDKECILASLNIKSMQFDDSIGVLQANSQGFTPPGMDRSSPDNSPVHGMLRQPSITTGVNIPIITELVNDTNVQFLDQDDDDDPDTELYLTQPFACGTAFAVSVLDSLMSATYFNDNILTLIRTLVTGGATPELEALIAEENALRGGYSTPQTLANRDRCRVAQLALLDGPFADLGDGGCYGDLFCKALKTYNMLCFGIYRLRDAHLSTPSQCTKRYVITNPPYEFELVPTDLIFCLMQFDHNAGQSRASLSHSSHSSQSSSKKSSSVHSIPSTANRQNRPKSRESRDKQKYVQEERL
# T1 sequence (Q16558 whole entry partner): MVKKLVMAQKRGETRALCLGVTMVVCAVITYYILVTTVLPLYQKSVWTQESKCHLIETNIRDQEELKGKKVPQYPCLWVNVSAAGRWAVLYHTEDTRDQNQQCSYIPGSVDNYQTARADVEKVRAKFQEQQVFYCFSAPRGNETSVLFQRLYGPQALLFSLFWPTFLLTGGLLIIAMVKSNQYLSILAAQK
row,Structure (SMILES),EC100
1,Cc1ccc(C(F)(F)F)cc1-c1cc(OC2(C(=O)O)CC2)nc(-c2ccc(F)cc2)n1 [Example 906],0.15 µM
2,CCOc1cccc(-c2cc(OC3(C(=O)[O-])CC3)nc(-c3ccc(Cl)c(F)c3)n2)c1.[Na+] [Example 553],0.1 µM
3,COCc1ccc(-c2cc(OC(C)(C)C(=O)[O-])nc(-c3ccc(Cl)c(F)c3)n2)cc1.[Na+] [Example 485],1.83 µM
4,COCCN(CC(=O)O)c1cc(-c2ccc(F)cc2)nc(-c2ccc(Cl)c(F)c2)n1 [Example 646],1.23 µM
5,O=C(O)C1(Oc2cc(-c3ccc(Cl)cc3)nc(N3CCc4cc(F)ccc4C3)n2)CC1 [Example 1192],0.04 µM
6,CCOCC1CCN(c2nc(-c3ccc(Cl)cc3)nc(OC3(C(=O)[O-])CC3)c2F)CC1.[Na+] [Example 1131],0.23 µM
7,COC[C@@H]1CCCN1c1cc(OC2(C(=O)[O-])CC2)nc(-c2ccc(Cl)s2)n1.[Na+] [Example 67],1.92 µM
8,COc1ncccc1-c1cc(OC2(C(=O)[O-])CCCC2)nc(-c2ccc(Cl)c(F)c2)n1.[Na+] [Example 566],0.56 µM
9,COCCC1CCN(c2nc(OC3(C(=O)O)CC3)cc(-c3cc(Cl)c(Cl)s3)n2)CC1 [Example 1218],0.15 µM
10,O=C([O-])C1(Oc2cc(-c3nccs3)nc(-c3ccc(Cl)c(F)c3)n2)CC1.[Na+] [Example 559],0.36 µM
11,O=C([O-])C1(Oc2cc(-c3ccc(F)cc3)nc(-c3ccc(Cl)c(F)c3)n2)CC1.[Na+] [Example 512],0.14 µM
12,CC(C)COC1CCN(c2nc(OC3(C(=O)O)CC3)cc(-c3ccc(Cl)cc3)n2)CC1 [Example 1182],1.03 µM
13,N#Cc1cccc(-c2cc(OC3(C(=O)[O-])CC3)nc(-c3ccc(Cl)c(F)c3)n2)c1.[Na+] [Example 548],0.29 µM
14,O=C([O-])C1(Oc2cc(N3CCc4ccc(F)cc4C3)nc(-c3ccc(F)cc3)n2)CC1.[Na+] [Example 1109],0.07 µM
15,COc1cc(F)ccc1-c1cc(OC2(C(=O)[O-])CC2)nc(-c2cccc(F)c2)n1.[Na+] [Example 613],0.12 µM
16,O=C([O-])C1(Oc2cc(-c3ccc(F)cc3O)nc(-c3ccc(Cl)c(F)c3)n2)CC1.[Na+] [Example 558],0.04 µM
17,COCC1CCN(c2cc(OC3(C(=O)[O-])CC3)nc(-c3ccc(Cl)s3)n2)CC1.[Na+] [Example 69],2.56 µM
18,COc1ccc(-c2nc(-c3ccc(F)cc3)nc(OC3(C(=O)[O-])CC3)c2C)cc1Cl.[Na+] [Example 982],0.1 µM
19,COc1cc(-c2nc(-c3ccc(F)cc3)nc(OC3(C(=O)[O-])CC3)c2C)ccc1F.[Na+] [Example 996],0.58 µM
20,COC[C@@H]1CCCN1c1nc(OC(C)(C)C(=O)[O-])nc(-c2ccc(Cl)c(F)c2)n1.[Na+] [Example 6],1.61 µM
21,COc1cc(F)cc(-c2cc(OC3(C(=O)[O-])CCOCC3)nc(-c3ccc(Cl)c(F)c3)n2)c1.[Na+] [Example 573],0.05 µM
22,O=C(O)C1(Oc2cc(-c3ccc(Cl)cc3)nc(N3CCc4ccc(F)cc4C3)n2)CC1 [Example 1191],0.02 µM
23,COCCC1CCN(c2nc(OC3(C(=O)O)CC3)cc(-c3cc(C)c(Cl)s3)n2)CC1 [Example 1208],0.96 µM
24,COCCCC1CCN(c2nc(-c3ccc(F)cc3)nc(OC3(C(=O)[O-])CC3)c2C)CC1.[Na+] [Example 1126],0.77 µM
25,COCc1cc(Cl)ccc1-c1cc(OC2(C(=O)O)CC2)nc(-c2ccc(Cl)cc2)n1 [Example 921],0.1 µM
26,CCC(CC)(Oc1cc(N2CCC(OC)CC2)nc(-c2ccc(Cl)c(F)c2)n1)C(=O)[O-].[Na+] [Example 33],1.75 µM
27,Cc1c(OC2(C(=O)[O-])CC2)nc(-c2ccc(F)cc2)nc1-c1ccc(Cl)s1.[Na+] [Example 1007],0.1 µM
28,COCCCC1CCN(c2nc(OC3(C(=O)[O-])CC3)cc(-c3cc(C)c(Cl)s3)n2)CC1.[Na+] [Example 1215],0.39 µM

row,Structure (SMILES),EC100
1,COC[C@@H]1CCCN1c1cc(OC2(C(=O)[O-])CC2)nc(-c2ccc(Cl)c(F)c2)n1.[Na+] [Example 36],0.59 µM
2,CCOc1cc(F)ccc1-c1cc(OC2(C(=O)O)CC2)nc(-c2ccc(F)cc2)n1 [Example 709],0.12 µM
3,COC[C@@H]1CCCN1c1cc(OC2(C(=O)[O-])CCCC2)nc(-c2ccc(Cl)c(F)c2)n1.[Na+] [Example 54],1.31 µM
4,O=C(O)C1(Oc2cc(-c3ccc(Cl)cc3)nc(OCc3ccc(F)c(F)c3)n2)CC1 [Example 1286],1.2 µM
5,COc1ccccc1-c1nc(OC(C)(C)C(=O)[O-])nc(-c2ccc(Cl)c(F)c2)n1.[Na+] [Example 207],1.91 µM
6,COCc1cccc(-c2cc(OC3(C(=O)[O-])CC3)nc(-c3ccc(Cl)c(F)c3)n2)c1.[Na+] [Example 526],0.36 µM
7,COCC1CCN(c2cc(OC(C)(C)C(=O)[O-])nc(-c3ccc(Cl)c(F)c3)n2)CC1.[Na+] [Example 17],2.47 µM
8,Cc1c(OC2(C(=O)O)CC2)nc(-c2ccc(Cl)cc2)nc1N1CCC(OCC2CC2)CC1 [Example 1118],0.42 µM
9,COc1ccc(F)cc1-c1cc(OC2(C(=O)[O-])CC2)nc(-c2ccc(Cl)c(F)c2)n1.[Na+] [Example 520],0.32 µM
10,Cc1cc(Cl)ccc1-c1nc(OC2(C(=O)[O-])CC2)nc(-c2ccc(Cl)cc2)n1.[Na+] [Example 1088],0.14 µM
11,COc1ccc(CN(C)c2cc(OC3(C(=O)O)CC3)nc(-c3ccc(F)cc3)n2)cc1 [Example 1100],0.38 µM
12,O=C([O-])C1(Oc2cc(N3CCc4cc(F)ccc43)nc(-c3ccc(F)cc3)n2)CC1.[Na+] [Example 1108],0.36 µM
13,O=C(O)C1(Oc2cc(-c3ccc(C(F)(F)F)nc3)nc(-c3ccc(Cl)c(F)c3)n2)CC1 [Example 888],0.48 µM
14,CCOc1cc(F)cc(-c2nc(-c3ccc(F)cc3)nc(OC3(C(=O)[O-])CC3)c2C)c1.[Na+] [Example 978],0.12 µM
15,COc1cc(-c2nc(-c3ccc(F)cc3)nc(OC3(C(=O)[O-])CC3)c2C)ccc1Cl.[Na+] [Example 993],0.13 µM
16,CCO[C@H]1CCCN(c2cc(OC3(C(=O)[O-])CC3)nc(-c3ccc(Cl)c(F)c3)n2)C1.[Na+] [Example 50],1.05 µM
17,Cc1cc(F)ccc1-c1cc(OC2(C(=O)O)CC2)nc(-c2ccc(F)cc2)c1 [Example 1087],0.36 µM
18,COCC1CCN(c2cc(OC3(C(=O)[O-])CC3)nc(-c3ccc(Cl)c(F)c3)n2)CC1.[Na+] [Example 39],0.25 µM
19,O=C([O-])C1(Oc2cc(-c3cccc(C(F)(F)F)c3)nc(-c3ccc(Cl)c(F)c3)n2)CC1.[Na+] [Example 556],0.03 µM
20,CCCOC1CCN(c2nc(OC3(C(=O)O)CC3)cc(-c3ccc(F)c(C(F)(F)F)c3)n2)CC1 [Example 1153],0.34 µM
21,Cc1cc(C(F)(F)F)ccc1-c1cc(OC2(C(=O)O)CC2)nc(-c2ccc(F)cc2)n1 [Example 905],0.14 µM
22,CCOC1CCN(c2nc(OC3(C(=O)O)CC3)cc(-c3cc(Cl)c(Cl)s3)n2)CC1 [Example 1216],0.54 µM
23,O=C(O)C1(Oc2cc(-c3ccc(Cl)s3)nc(N3CCc4cc(F)ccc4C3)n2)CC1 [Example 1203],0.01 µM
24,CCCOC1CCN(c2cc(OC3(C(=O)[O-])CC3)nc(-c3ccc(F)cc3)n2)CC1.[Na+] [Example 78],1.41 µM
25,CCCOCC1CCN(c2nc(-c3ccc(Cl)cc3)nc(OC3(C(=O)[O-])CC3)c2F)CC1.[Na+] [Example 1133],1.29 µM
26,O=C([O-])C1(Oc2cc(N3CCc4cc(F)ccc4C3)nc(-c3ccc(Cl)cc3)n2)CC1.[Na+] [Example 1096],0.11 µM
27,CCOCC1CCN(c2nc(-c3ccc(F)cc3)nc(OC3(C(=O)O)CC3)c2C)CC1 [Example 1122],0.9 µM
